# Data as given in US20220346382A1, “COMPOSITION FOR TREATING AND PREVENTING BACTERIAL GROWTH ON A SUBSTRATE” (PETROLIAM NASIONAL BERHAD (PETRONAS), priority 2019, published 2022).
# Experiments:
# [1] = tested on: bacteria of produced water sample B04S; test: Cell dry weight of cultured formulations (NACE TM0194-2014); format: cell-based; conditions: Day 7, ambient temperature, static
# Text: Bacteria were isolated from produced water samples from an oil field (denoted as samples B04S and B24) in accordance with NACE TM0194-2014.
# In sample B04S, Bacillus sp., Bacillus thuringiensis and Marine actinomycetes were identified. In sample B24, Bacillus thuringiensis and Marine actinomycetes were identified. Marine actinomycete was identified to be the main species that support biofilm stability and a growth environment for other species including sulphate-reducing bacteria (SRB).
# (§1) Formulations were prepared by mixing the listed chemical components in the stated concentrations with produced water sample BO4S in a flask (Table 1). These formulations were tested in subsequent examples for biocide activity.
# The formulations in Example 1 were cultured for seven days at ambient temperatures and static conditions in glass vials. Subsequently the cell dry weight of the formulations was quantified in accordance with NACE TM0194-2014. The cell dry weight for each formulation was reported in and/or converted to g/mL for comparison (FIG. 1).
# [2] = tested on: bacteria of produced water sample B04S; test: Viable cell count from suspension cells by hemocytometer (ASTM E 2315-03); format: cell-based
# Description: as §1
# In a typical procedure, a glass hemocytometer and coverslip was cleaned with alcohol prior to use. The coverslip was moisturised with water and affixed to the hemocytometer. The presence of Newton's refraction rings under the coverslip indicated proper adhesion.
# The flasks containing the formulations were gently swirled to ensure that the cells were evenly distributed. Before the cells settled to the bottom of the flasks, 0.5 mL of a cell suspension was transferred out to an Eppendorf tube using a 5 mL sterile pipette. Trypan blue (three to five drops) was added to the tube. 100 μL of the Trypan blue-treated cell suspension was pipetted and transferred to the hemocytometer. If a glass hemocytometer was used, both chambers were gently filled underneath the coverslip, allowing the cell suspension to be drawn out by capillary action. If a disposable hemocytometer was used, the cell suspension was pipetted into the well of the counting chamber, allowing capillary action to draw it inside. A microscope was used to focus on the grid lines of the hemocytometer with a 10× objective.
molecule,measurement,setting,value
"N[C@H](Cc1c[nH]c2ccccc12)C(=O)O [TT, D-Tryptophan]",lower cell dry weight as compared to formulation THPS,[1],40%
same,lower cell count as compared to THPS only,"[2]; Day 5, sample B04S",77%
same,lower cell count as compared to THPS only,"[2]; Day 7, sample B04S",78%
"tetrakis hydroxymethyl phosphonium sulfate [THPS, reference compound]",suppression of bacteria growth,"[2]; 100 ppm, Day 7",could not suppress bacteria growth
